Earlier results as cited in PMC9034292 (The Journal of Biological Chemistry, 2022).

Legend:
[1] = system: HIV-1 RT–associated RNase H
[2] = one divalent cation-coordinating ion

| Molecule | Inhibition of HIV RNase H [1] | Manner of inhibition of HIV-1 RT–associated RNase H [1] | Inhibition of HBV RNase H (HBV RNase H) | Kd [2] | logK (stability constant) [2] |
| --- | --- | --- | --- | --- | --- |
| CC(C)c1ccc(O)c(=O)c(O)c1 [β-thujaplicinol] | inhibits | reversible noncompetitive | inhibits |  |  |
| dihydroxytropylium ion |  |  |  | 150 µM | 3.82 |
